Data: patent publication US10533010B2, “Substituted indole Mcl-1 inhibitors” (Vanderbilt University, priority 2014, dated 2020)

Target: recombinant Mcl-1 (residues 172-327) (Homo sapiens (Human), UniProt Q07820)
Test: Fluorescence polarization anisotropy competition assay (FITC-Bak or FITC-Bim BH3 peptide) with Mcl-1
Type: binding
Settings: Table 2; Ki bins given in nM; FITC-Bak or FITC-Bim peptide competition; Ki converted from IC50; read-out: Ki for Inhibition of Mcl-1

Chain of recombinant Mcl-1 (residues 172-327) (Q07820 172-327): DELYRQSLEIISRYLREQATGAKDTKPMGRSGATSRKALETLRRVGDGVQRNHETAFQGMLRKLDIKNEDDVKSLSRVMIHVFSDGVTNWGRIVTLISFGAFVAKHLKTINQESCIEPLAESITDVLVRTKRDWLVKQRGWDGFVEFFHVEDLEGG

Structure (SMILES)	Ki [nM]
Cc1cc(OCCCc2c(C(=O)NC3CCN(C(=O)C(=O)O)CC3)[nH]c3c(-c4c(C)nn(C)c4C)c(Cl)ccc23)cc(C)c1Cl [I-321, 2-(4-(6-chloro-3-(3-(4-chloro-3,5-dimethylphenoxy)propyl)-7-(1,3,5-trimethyl-1H-pyrazol-4-yl)-1H-indole-2-carboxamido)piperidin-1-yl)-2-oxoacetic acid]	< 50
Cc1cc(OCCCc2c3n(c4c(-c5c(C)nn(C)c5C)cccc24)CCCN(Cc2ccc(-c4nnn[nH]4)cc2)C3=O)cc(C)c1Cl [I-88, 2-(4-(1H-tetrazol-5-yl)benzyl)-11-(3-(4-chloro-3,5-dimethylphenoxy)propyl)-7-(1,3,5-trimethyl-1H-pyrazol-4-yl)-2,3,4,5-tetrahydro-1H-[1,4]diazepino[1,2-a]indol-1-one]	< 50
Cc1cc(OCCCc2c3n(c4c(-c5c(C)nn(C)c5C)c(Cl)ccc24)CCCN(Cc2cc(C(=O)O)cc(-c4ccc(OCc5ccccc5C(F)(F)F)cc4)c2)C3=O)cc(C)c1Cl [I-308, 5-((8-chloro-1-(3-(4-chloro-3,5-dimethylphenoxy)propyl)-1-oxo-7-(1,3,5-trimethyl-1H-pyrazol-4-yl)-4,5-dihydro-1H-[1,4]diazepino[1,2-a]indol-2(3H)-yl)methyl)-4′-((2-(trifluoromethyl)benzyl)oxy)-[1,1′-biphenyl]-3-carboxylic acid]	51 to 100
Cc1cc(OCCCc2c3n(c4c(-c5c(C)nn(C)c5C)c(Cl)ccc24)C(C)[C@@H](C)N(c2ccc(C(=O)O)c4ncccc24)C3=O)cc(C)c1Cl (stereo partly drawn) [I-164, 5-((3R)-7-chloro-10-(3-(4-chloro-3,5-dimethylphenoxy)propyl)-3,4-dimethyl-1-oxo-6-(1,3,5-trimethyl-1H-pyrazol-4-yl)-3,4-dihydropyrazino[1,2-a]indol-2(1H)-yl)quinoline-8-carboxylic acid]	51 to 100
Cc1cc(OCCCc2c3n(c4c(-c5c(C)nn(C)c5C)c(Cl)ccc24)CCCN(Cc2cc(C(=O)O)cc(Cl)n2)C3=O)cc(C)c1Cl [I-298, 2-chloro-6-((8-chloro-1-(3-(4-chloro-3,5-dimethylphenoxy)propyl)-1-oxo-7-(1,3,5-trimethyl-1H-pyrazol-4-yl)-4,5-dihydro-1H-[1,4]diazepino[1,2-a]indol-2(3H)-yl)methyl)isonicotinic acid]	< 50
Cc1cc(OCCCc2c3n(c4c(-c5c(C)nn(C)c5C)c(Cl)ccc24)C[C@@H](C)N(Cc2ccc(C(=O)O)cc2)C3=O)cc(C)c1Cl [I-120, (R)-4-((7-chloro-10-(3-(4-chloro-3,5-dimethylphenoxy)propyl)-3-methyl-1-oxo-6-(1,3,5-trimethyl-1H-pyrazol-4-yl)-3,4-dihydropyrazino[1,2-a]indol-2(1H)-yl)methyl)benzoic acid]	< 50
Cc1cc(OCCCc2c(C(=O)NCCC(=O)NS(=O)(=O)c3cccc(C#N)c3)[nH]c3ccccc23)cc(C)c1Cl [I-19, 3-(3-(4-chloro-3,5-dimethylphenoxy)propyl)-N-(3-((3-cyanophenyl)sulfonamido)-3-oxopropyl)-1H-indole-2-carboxamide]	101 to 299
Cc1cc(OCCCc2c(C(=O)N[C@H]3CCCC[C@H]3C(=O)O)[nH]c3c(-c4c(C)nn(C)c4C)c(Cl)ccc23)cc(C)c1Cl [I-333, (1R,2S)-2-(6-chloro-3-(3-(4-chloro-3,5-dimethylphenoxy)propyl)-7-(1,3,5-trimethyl-1H-pyrazol-4-yl)-1H-indole-2-carboxamido)cyclohexane-1-carboxylic acid]	< 50

Results, then the compound that gave them:

Ki [nM]	Structure (SMILES)
< 50	Cc1cc(OCCCc2c3n(c4c(-c5c(C)nn(C)c5C)c(Cl)ccc24)CCC(C)N(Cc2ccc(C(=O)O)o2)C3=O)cc(C)c1Cl (centres unmarked) [I-126, 5-((8-chloro-1-(3-(4-chloro-3,5-dimethylphenoxy)propyl)-3-methyl-1-oxo-7-(1,3,5-trimethyl-1H-pyrazol-4-yl)-4,5-dihydro-1H-[1,4]diazepino[1,2-a]indol-2(3H)-yl)methyl)furan-2-carboxylic acid]
< 50	Cc1cc(OCCCc2c3n(c4c(-c5c(C)nn(C)c5C)c(Cl)ccc24)CCN(c2cc(C(=O)O)cc(N4CCOCC4)c2)C3=O)cc(C)c1Cl [I-213, 3-(7-chloro-10-(3-(4-chloro-3,5-dimethylphenoxy)propyl)-1-oxo-6-(1,3,5-trimethyl-1H-pyrazol-4-yl)-3,4-dihydropyrazino[1,2-a]indol-2(1H)-yl)-5-morpholinobenzoic acid]
< 50	Cc1cc(OCCCc2c(C(=O)N[C@H]3CCC[C@@H](C(=O)O)C3)[nH]c3c(-c4c(C)nn(C)c4C)c(Cl)ccc23)cc(C)c1Cl [I-331, (1R,3S)-3-(6-chloro-3-(3-(4-chloro-3,5-dimethylphenoxy)propyl)-7-(1,3,5-trimethyl-1H-pyrazol-4-yl)-1H-indole-2-carboxamido)cyclohexane-1-carboxylic acid]
< 50	Cc1cc(OCCCc2c3n(c4c(-c5c(C)nn(C)c5C)c(Cl)ccc24)[C@H](C)CN(Cc2ccc(C(=O)O)cn2)C3=O)cc(C)c1Cl [I-153, (R)-6-((7-chloro-10-(3-(4-chloro-3,5-dimethylphenoxy)propyl)-4-methyl-1-oxo-6-(1,3,5-trimethyl-1H-pyrazol-4-yl)-3,4-dihydropyrazino[1,2-a]indol-2(1H)-yl)methyl)nicotinic acid]
< 50	Cc1nn(C)c(C)c1-c1cccc2c(CCCOc3cccc4ccccc34)c(C(=O)Nc3cccc(C(=O)O)c3)[nH]c12 [I-193, 3-(3-(3-(naphthalen-1-yloxy)propyl)-7-(1,3,5-trimethyl-1H-pyrazol-4-yl)-1H-indole-2-carboxamido)benzoic acid]
< 50	Cc1cc(OCCCc2c(C(=O)NCc3cccc(C(=O)NS(=O)(=O)c4cccc(C#N)c4)c3)[nH]c3c(-c4c(C)nn(C)c4C)cccc23)cc(C)c1Cl [I-30, 3-(3-(4-chloro-3,5-dimethylphenoxy)propyl)-N-(3-(((3-cyanophenyl)sulfonyl)carbamoyl)benzyl)-7-(1,3,5-trimethyl-1H-pyrazol-4-yl)-1H-indole-2-carboxamide]
< 50	Cc1cc(N2CCCn3c(c(CCCOc4cc(C)c(Cl)c(C)c4)c4ccc(Cl)c(-c5c(C)nn(C)c5C)c43)C2=O)ccc1C(=O)O [I-99, 4-(8-chloro-11-(3-(4-chloro-3,5-dimethylphenoxy)propyl)-1-oxo-7-(1,3,5-trimethyl-1H-pyrazol-4-yl)-4,5-dihydro-1H-[1,4]diazepino[1,2-a]indol-2(3H)-yl)-2-methylbenzoic acid]
< 50	Cc1cc(OCCCc2c(C(=O)Nc3cc(Br)cc(C(=O)O)c3)[nH]c3c(-c4c(C)nn(C)c4C)c(Cl)ccc23)cc(C)c1Cl [I-217, 3-bromo-5-(6-chloro-3-(3-(4-chloro-3,5-dimethylphenoxy)propyl)-7-(1,3,5-trimethyl-1H-pyrazol-4-yl)-1H-indole-2-carboxamido)benzoic acid]
< 50	Cc1cc(OCCCc2c3n(c4c(-c5c(C)nn(C)c5C)c(Cl)ccc24)CCCN(c2cccc(C(=O)O)c2C)C3=O)cc(C)c1Cl [I-96, 3-(8-chloro-11-(3-(4-chloro-3,5-dimethylphenoxy)propyl)-1-oxo-7-(1,3,5-trimethyl-1H-pyrazol-4-yl)-4,5-dihydro-1H-[1,4]diazepino[1,2-a]indol-2(3H)-yl)-2-methylbenzoic acid]
